Laboratory results reported in patent US20240415808A1, “Dosage Regimen for Fexuprazan Injection Composition” (Daewoong Pharmaceutical Co., Ltd., priority 2021, published 2024).
“And” between values parts separate entries of the source, which are not always exact repeats. Identical values can stand only once.

Assays:
[1] = pharmacokinetic experiment in male rats (oral and tail vein); assay type: in vivo, rat
Description: Methylcellulose was dissolved in physiological saline to prepare a solution containing methylcellulose at a concentration of 0.5 wt %, and then the previously prepared fexuprazan hydrochloride was added thereto to prepare a composition with Fexuprazan at a concentration of 1 mg/mL. The composition prepared above was orally administered to male rats at a dose of 2 mg/kg in a liquid volume of 2 mL/kg depending on the body weight of the individual, and then blood was collected using an orbital blood collection method at 0.25, 0.5, 1, 2, 4, 6, 8, and 24 hours, and centrifuged at 10,000 rpm for 5 minutes. Plasma was collected, analyzed by HPLC-MS/MS, and pharmacokinetic parameters were calculated.
Then, methylcellulose was dissolved in physiological saline to prepare a solution containing methylcellulose at a concentration of 0.5 wt,%, and then the previously prepared fexuprazan hydrochloride was added thereto to prepare a composition with fexuprazan at a concentration of 1 mg/mL. The composition was administered through the tail vein in male rats at a dose of 1 mg/kg in a liquid volume of 1 mL/kg depending on the body weight of the individual. Blood was collected by the same method as in oral administration at 0.083, 0.25, 0.5, 1, 2, 4, 6, 8, and 24 hours, and then analyzed.

[2] = 4-week repeated intravenous toxicity test, rat; assay type: in vivo
Description: (§1) The previously prepared fexuprazan hydrochloride was dissolved in a solution containing 30 wt. % of polyethylene glycol (Polyethylene Glycol 400) polymer in physiological saline, and the concentration was calculated based on fexuprazan weight so that it could be administered at a liquid volume of 5 mL/kg for rats and 2 mL/kg for beagle dogs to prepare each composition. Toxicity was evaluated by intravenously administering at doses of 0, 2.5, 5, and 10 mg/kg/day to rats and beagle dogs, respectively, once a day for 4 weeks.

[3] = 4-week repeated intravenous toxicity test, beagle dog; assay type: in vivo
Description: as §1

[4] = tested on: acidity (pH) in the gastrointestinal tract; assay: single intravenous dose-escalation clinical trial, acidity (pH) in the gastrointestinal tract; assay type: in vivo, human; details: healthy adults; for Fraction time pH ≥ 4 (%) / Fraction time pH ≥ 6 (%): 24 hours after medication
Description: In order to confirm the safety/PK/PD of the compound of the present invention during intravenous administration, the clinical trial was designed with random assignment, double-blind, placebo-controlled, single dose, and stepwise dose-escalation in healthy adults (Korean/Chinese) between the ages of 19 and 50.
A stabilizer (200 mg), a freeze-drying auxiliary agent (200 mg), and the previously prepared fexuprazan hydrochloride (40 mg based on fexuprazan weight) were dissolved in water for injection (4 mL), and an appropriate amount of acid was added thereto to adjust the pH to 4.0. The prepared solution was put into a vial, dried by a freeze-drying method, and prepared as a freeze-drying agent.
The freeze-dried composition prepared as above was used, but a total of 28 subjects of 4, 8, 8, and 8 subjects each were enrolled for four dose groups (10 mg, 20 mg, 40 mg, and 80 mg) based on fexuprazan weight, and each group was randomly assigned to test or control groups in the order that they passed the screening criteria at a ratio of 3:1. All test subjects completed safety, pharmacokinetic, and pharmacodynamic evaluations according to the planned clinical trial schedule.
The medication was performed in the morning, and the patient was discharged from the hospital on the third day of medication. Subsequently, a close-out visit was performed between the 8th and 11th day of medication.
(§2) Testing of the acidity (pH) in the gastrointestinal tract and gastric secretion promoting hormone gastrin were performed from 24 hours before medication to 24 hours after medication. Blood collection for pharmacokinetics and urine collection for pharmacokinetics were performed for 48 hours from the time of medication.

[5] = tested on: acidity (pH) in the gastrointestinal tract; assay: oral vs intravenous two-way crossover clinical trial, acidity (pH) in the gastrointestinal tract; assay type: in vivo, human; details: healthy adults
Excerpt: Therefore, in order to compare the safety/PK/PD of the compound of the present invention during single intravenous administration and during single oral administration and derive the bioavailability, the clinical trial was designed as a randomized, open-label, single-dose, two-period, two-way crossover trial in healthy adults. The selection/exclusion criteria were the same as in Experimental Example 4. A total of 8 subjects were enrolled, and four subjects each were randomly assigned to sequence group 1 or sequence group 2 in the order in which they passed the screening criteria. All test subjects completed safety, pharmacokinetic, and pharmacodynamic evaluations according to the planned clinical trial schedule.
A screening visit was performed 3 to 28 days before the start of the clinical trial, and hospital admission was performed 2 days before medication. The first phase medication was performed according to the order group randomly assigned on the morning of the day. A stabilizer (200 mg), a freeze-drying auxiliary agent (200 mg), and the previously prepared fexuprazan hydrochloride (40 mg based fexuprazan weight) were dissolved in water for injection (4 mL), an appropriate amount of acid was added thereto. A composition whose pH was adjusted to 4.0 was administered intravenously, or an excipient (100 mg), a disintegrant (5 mg), and the previously prepared fexuprazan hydrochloride (40 mg based on fexuprazan weight) were mixed and compressed to prepare a tablet, which were administered orally. The hospital discharge was performed on the third day of medication. The second phase medication was performed on the morning of the 8th after hospital admission on the 6th day after the first phase medication. Hospital discharge was performed on the 10th day of medication. Subsequently, a close-out visit was performed between 15 and 18 days after medication (FIG. 6).
as §2

[6] = intravenous administration (40 mg)

## CNCc1cn(S(=O)(=O)c2cccc(F)c2)c(-c2ccc(F)cc2F)c1OC [Fexuprazan, 1-(5-(2,4-difluorophenyl)-1-((3-fluorophenyl)sulfonyl)-4-methoxy-1H-pyrrol-3-yl)-N-methylmethanamine]
[1]; PO 2 mg/kg vs IV 1 mg/kg
  BA: 24.7%
[1]; rat, plasma, IV 1 mg/kg
  AUC(0-t): 143 ± 38 ng·h/mL
  Vd: 20.2 ± 5.2 L/kg
  clearance: 114 ± 29 mL/min/kg
  half-life: 2.06 ± 0.25 h
[1]; rat, plasma, PO 2 mg/kg
  AUC(0-t): 70.9 ± 22.4 ng·h/mL
  Cmax: 23.8 ± 10.7 ng/mL
  Tmax: 0.833 ± 0.289 h
  half-life: 1.74 ± 0.16 h
[2]; Rat, 4 weeks, intravenous, doses 0, 2.5, 5, 10
  Result: harmless dose: harmless dose 10 mg/kg
[2]; rats, 2.5, 5, 10 mg/kg/day intravenous, 4 weeks
  toxic symptoms due to the test substance: no toxic symptoms due to the test substance were observed in all administration groups
[2]; rats, intravenous once a day for 4 weeks
  harmless dose: 10 mg/kg/day
[3]; Beagle dog, 4 weeks, intravenous, doses 0, 2.5, 5, 10
  Result: harmless dose: harmless dose 10 mg/kg
[3]; beagle dogs, 2.5, 5, 10 mg/kg/day intravenous, 4 weeks
  toxic symptoms due to the test substance: no toxic symptoms due to the test substance were observed in all administration groups
[3]; beagle dogs, intravenous once a day for 4 weeks
  harmless dose: 10 mg/kg/day
[4]; intravenous administration of 40 mg, 12 hours
  time during which the pH maintained above 6 for 12 hours: ≥ 50%
[4]; single intravenous 10 mg
  Mean pH: 2.7 ± 0.1
  Median pH: 2.1 ± 0.2
  Fraction time pH ≥ 4 (%): 20.4 ± 2.6%
  Fraction time pH ≥ 6 (%): 2.9 ± 2.0%
[4]; single intravenous 20 mg
  Mean pH: 3.9 ± 0.8
  Median pH: 3.8 ± 1.3
  Fraction time pH ≥ 4 (%): 46.7% and 46.7 ± 19.0%
  Fraction time pH ≥ 6 (%): 16.7 ± 14.6%
[4]; single intravenous 40 mg
  Mean pH: 4.9 ± 0.3
  Median pH: 5.4 ± 0.6
  Fraction time pH ≥ 4 (%): 71.0 ± 10.3%
  Fraction time pH ≥ 6 (%): 38.3 ± 9.0%
[4]; single intravenous 80 mg
  Mean pH: 5.9 ± 0.4
  Median pH: 6.2 ± 0.3
  Fraction time pH ≥ 4 (%): 92.9 ± 4.8%
  Fraction time pH ≥ 6 (%): 59.65% and 59.7 ± 15.7%
[5]; [6]
  Fraction time pH ≥ 4 (%): 71.6% and 71.6 ± 13.5%
  Fraction time pH ≥ 6 (%): 38.7 ± 10.9%
  Mean pH: 4.9 and 4.9 ± 0.5
  Median pH: 5.5 ± 0.7
[5]; oral administration (40 mg)
  Fraction time pH ≥ 4 (%): 47.5% and 47.5 ± 14.2%
  Fraction time pH ≥ 6 (%): 20.3 ± 12.8%
  Mean pH: 3.9 and 3.9 ± 0.7
  Median pH: 3.9 ± 1.2
